Measured values: patent EP0094564A2, “Azolyl-methyl oxiranes, their preparation and use as medicaments and plant protecting agents” (BASF Aktiengesellschaft, priority 1982, dated 1983)
Converted amounts (≈) assume the structure as drawn.

How the values were obtained:
Cand.alb. M = assay: Candida albicans pseudomycelium/mycelium phase test, MIC (column M); type: cell-based; settings: in vitro, read-out: Minimale Hemmkonzentration (MHK) Cand.alb. M
Description: (§1) Die Wirkung gegen Dermatophyten, Bakterien und Protozonen kann nach Methoden, wie sie beispielsweise in P. Klein, Bakteriologische Grundlagen der chemotherapeutischen Laboratoriumspraxis, Springer-Verlag Berlin, 1957, beschrieben wird, aufgezeigt werden. Die überraschende Wirkung gegenüber Hefen wurde im Pseudomyzel- und Myzelphasentest mit Candida albicans nachgewiesen (vgl. DE-OS 30 10 093). Es wurde geprüft, welche minimalen Hemmkonzentrationen (MHK-Werte) im Agardilutionstest erreicht werden. In der Tabelle 1 sind die Ergebnisse zusammengefaßt.

Trichom. vag. = assay: Minimal inhibitory concentration in vitro (protozoa); type: cell-based; settings: read-out: Minimale Hemmkonzentration (MHK) Trichom. vag.
Description: as §1

Entamoeb hist. = assay: as above; type: cell-based; settings: read-out: Minimale Hemmkonzentration (MHK) Entamoeb hist.
Description: as §1

Cand.alb. H = assay: Candida albicans pseudomycelium/mycelium phase test, MIC; type: cell-based; settings: in vitro, column H, read-out: Minimale Hemmkonzentration (MHK) Cand.alb. H
Description: as §1

Staph. aur. SG 511 = assay: Agar dilution test, minimal inhibitory concentration in vitro; type: cell-based; settings: read-out: Minimale Hemmkonzentration (MHK) Staph. aur. SG 511
Description: as §1

Epid. flocc. 157 = assay: as above; type: cell-based; settings: read-out: Minimale Hemmkonzentration (MHK) Epid. flocc. 157
Description: as §1

Aps.fum. 2 = assay: as above; type: cell-based; settings: read-out: Minimale Hemmkonzentration (MHK) Aps.fum. 2
Description: as §1

Strept. faec. 8043 = assay: as above; type: cell-based; settings: read-out: Minimale Hemmkonzentration (MHK) Strept. faec. 8043
Description: as §1

Trichoph. ment. 21 = assay: as above; type: cell-based; settings: read-out: Minimale Hemmkonzentration (MHK) Trichoph. ment. 21
Description: as §1

E.coli muta-flor = assay: as above; type: cell-based; settings: Escherichia coli, read-out: Minimale Hemmkonzentration (MHK) E.coli muta-flor
Description: as §1

Microsp. ferrug. 5 = assay: as above; type: cell-based; settings: read-out: Minimale Hemmkonzentration (MHK) Microsp. ferrug. 5
Description: as §1

Mucor pus. 6 = assay: as above; type: cell-based; settings: read-out: Minimale Hemmkonzentration (MHK) Mucor pus. 6
Description: as §1

Abs. corym. 1 = assay: as above; type: cell-based; settings: read-out: Minimale Hemmkonzentration (MHK) Abs. corym. 1
Description: as §1

Pullularia pullulans = assay: Versuch 5: filter paper disc inhibition zone test on malt extract agar; type: cell-based; settings: 72 h, discs soaked with 0,2 ml of 200 ppm solution, 3 days at 22 to 24 °C, read-out: Wirksamkeit gegen Pullularia pullulans
Description: Filtrierpäpierscheiben mit einem Durchmesser von 13 mm und einer Stärke von 1 mm werden mit 0,2 ml Lösungen getränkt, die jeweils 200 Teile Wirkstoff je Million Teile Lösung (ppm) enthalten. Die Scheiben werden dann auf einem 2 %igen Malzextraktagar in Petrischalen gelegt, die zuvor getrennt mit Sporen des holzverfärbenden Pilzes Pullularia pullulans beimpft wurden. Anschließend werden die Schalen 3 Tage lang bei 22 bis 24 °C bebrütet. Nach dieser Zeit hat sich der Pilz in den Kontrollschalen sehr gut entwickelt.
Die fungizide Wirksamkeit der Wirkstoffe wird anhand der um die Filtrierpapierscheiben herum entstandenen pilzfreien Zonen (Hemmhöfe) wie folgt beurteilt: […]

Trametes versicolor = assay: Versuch 6: fungal growth on malt extract agar containing active ingredient; type: cell-based; set-up: key: 0 = kein Pilzwachstum (Pilzmyzel abgetötet); 1 = geringes Pilzwachstum (bis 1/3 der Agaroberfläche bewachsen); 3 = mittleres Pilzwachstum (bis 2/3 der Agaroberfläche bewachsen); 5 = ungehemmtes Pilzwachstum (gesamte Agaroberfläche bewachsen); settings: 40 ppm in 5 % malt extract agar; 5 days at 25 °C; growth score
Description: (§2) Die Wirkstoffe werden in Aceton gelöst, in Mengen von 40 ppm einem verflüssigten 5 %igen Malzextraktagar zugesetzt. Der Agar wird in Petrischalen ausgegossen und nach dem Erstarren werden die fungizidhaltigen Nähragarplatten zentral mit Myzel der holzzerstörenden Pilze Coniophora puteana und Trametes versicolor, des Moderfäule und Stockflecken verursachenden Pilzes Chaetomium globosum sowie mit Sporen des grünen Holzschimmels Trichoderma viride beimpft.
(§3) Nach fünftägiger Bebrütung der Schalen bei 25 °C wird die Entwicklung der Pilzkolonien auf dem Nährboden im Vergleich mit der Kontrolle (ohne Wirkstoff-Zusatz) beurteilt: • 0 = kein Pilzwachstum (Pilzmyzel abgetötet) • 1 = geringes Pilzwachstum (bis 1/3 der Agaroberfläche bewachsen) • 3 = mittleres Pilzwachstum (bis 2/3 der Agaroberfläche bewachsen) • 5 = ungehemmtes Pilzwachstum (gesamte Agaroberfläche bewachsen)

Chaetomium globosum = assay: as above; type: cell-based; set-up: key: 0 = kein Pilzwachstum (Pilzmyzel abgetötet); 1 = geringes Pilzwachstum (bis 1/3 der Agaroberfläche bewachsen); 3 = mittleres Pilzwachstum (bis 2/3 der Agaroberfläche bewachsen); 5 = ungehemmtes Pilzwachstum (gesamte Agaroberfläche bewachsen); settings: 40 ppm in 5 % malt extract agar; 5 days at 25 °C; growth score
Description: as §2, §3

Coniophora puteana = assay: as above; type: cell-based; set-up: key: 0 = kein Pilzwachstum (Pilzmyzel abgetötet); 1 = geringes Pilzwachstum (bis 1/3 der Agaroberfläche bewachsen); 3 = mittleres Pilzwachstum (bis 2/3 der Agaroberfläche bewachsen); 5 = ungehemmtes Pilzwachstum (gesamte Agaroberfläche bewachsen); settings: 40 ppm in 5 % malt extract agar; 5 days at 25 °C; growth score
Description: as §2, §3

Trichoderma viride = assay: as above; type: cell-based; set-up: key: 0 = kein Pilzwachstum (Pilzmyzel abgetötet); 1 = geringes Pilzwachstum (bis 1/3 der Agaroberfläche bewachsen); 3 = mittleres Pilzwachstum (bis 2/3 der Agaroberfläche bewachsen); 5 = ungehemmtes Pilzwachstum (gesamte Agaroberfläche bewachsen); settings: 40 ppm in 5 % malt extract agar; 5 days at 25 °C; growth score
Description: as §2, §3

[1] = test system: Gurkenmehltau (Erysiphe cichoracearum); assay: Versuch 3: activity against cucumber powdery mildew on cucumber seedlings; type: in vivo; settings: 0,025 %ige Spritzbrühe; sprayed about 20 h after inoculation; assessed after 21 days; value given as 'beispielsweise'
Description: Blätter von in Töpfen gewachsenen Gurkenkeimlingen der Sorte "Chinesische Schlange" wurden im Zweiblattstadium mit einer Sporensuspension des Gurkenmehltaus (Erysiphe cichoracearum) besprüht. Nach etwa 20 Stunden wurden die Versuchspflanzen mit wäßriger Spritzbrühe, die 80 % Wirkstoff und 20 % Emulgiermittel in der Trockensubstanz enthielt, bis zur Tropfnässe besprüht. Nach dem Antrocknen des J Spritzbelages wurden sie anschließend im Gewächshaus bei Temperaturen zwischen 20 und 22^00 und 70 bis 80 % relativer Luftfeuchtigkeit aufgestellt. Zur Beurteilung der Wirksamkeit der neuen Stoffe wurde das Ausmaß der Pilzentwicklung nach 21 Tagen beurteilt.

Structure (SMILES) | MIC (Cand.alb. M) | MIC (Trichom. vag.) | MIC (Entamoeb hist.) | MIC (Cand.alb. H) | MIC (Staph. aur. SG 511) | MIC (Epid. flocc. 157) | MIC (Aps.fum. 2) | MIC (Strept. faec. 8043) | MIC (Trichoph. ment. 21) | MIC (E.coli muta-flor) | MIC (Microsp. ferrug. 5) | MIC (Mucor pus. 6) | MIC (Abs. corym. 1) | zone of inhibition at 200 ppm (Pullularia pullulans) | Wirksamkeit gegen Trametes versicolor (Trametes versicolor) | Wirksamkeit gegen Chaetomium globosum (Chaetomium globosum) | Wirksamkeit gegen Coniophora puteana (Coniophora puteana) | Wirksamkeit gegen Trichoderma viride (Trichoderma viride) | fungizide Wirkung gegen Gurkenmehltau [1]
COc1cccc(C2OC2(Cn2ccnc2)c2ccc(Cl)cc2)c1 (single isomer, unassigned) [Beispiel 29] | 0.25 µg/mL (≈ 0.734 µM) | > 16 µg/mL | > 1 µg/mL | 128 µg/mL (≈ 376 µM) | 16 µg/mL (≈ 46.9 µM) | 2 µg/mL (≈ 5.87 µM) | 16 µg/mL (≈ 46.9 µM) | 4 µg/mL (≈ 11.7 µM) | 2 µg/mL (≈ 5.87 µM) | > 128 µg/mL | 2 µg/mL (≈ 5.87 µM) | 4 µg/mL (≈ 11.7 µM) | 8 µg/mL (≈ 23.5 µM) |  |  |  |  |  | 
Clc1ccc(C2(Cn3ccnc3)OC2c2ccc(Br)cc2)cc1 (single isomer, unassigned) [Beispiel 47] | 0.0156 µg/mL (≈ 0.04 µM) | > 16 µg/mL | > 1 µg/mL | 64 µg/mL (≈ 164 µM) | 8 µg/mL (≈ 20.5 µM) | 1 µg/mL (≈ 2.57 µM) | 16 µg/mL (≈ 41.1 µM) | 4 µg/mL (≈ 10.3 µM) | 1 µg/mL (≈ 2.57 µM) | > 128 µg/mL | 0.25 µg/mL (≈ 0.642 µM) | 2 µg/mL (≈ 5.13 µM) | 2 µg/mL (≈ 5.13 µM) |  |  |  |  |  | 
Fc1ccc(C2OC2(Cn2cncn2)c2ccc(Cl)cc2)cc1 (single isomer, unassigned) [Beispiel 50] |  |  |  |  |  |  |  |  |  |  |  |  |  | > 6 mm | 0 | 0 | 0 | 0 | 
CC(C)(C)C1(Cn2ccnc2)OC1c1ccc(Cl)cc1Cl (single isomer, unassigned) [Beispiel 18] |  | > 16 µg/mL | > 1 µg/mL | > 16 µg/mL | 4 µg/mL (≈ 12.3 µM) | 0.25 µg/mL (≈ 0.769 µM) | 0.5 µg/mL (≈ 1.54 µM) | 2 µg/mL (≈ 6.15 µM) | 0.5 µg/mL (≈ 1.54 µM) | > 128 µg/mL | 0.25 µg/mL (≈ 0.769 µM) | 16 µg/mL (≈ 49.2 µM) | 32 µg/mL (≈ 98.4 µM) |  |  |  |  |  | 100%
CC1(Cn2cncn2)OC1c1ccc(Cl)cc1Cl (single isomer, unassigned) [Beispiel 22] |  |  |  |  |  |  |  |  |  |  |  |  |  | > 6 mm | 0 | 1 | 1 | 1 | 
